From patent publication US20050113292A1 (priority 2003, published 2005)
Values joined by “and” are separate entries in the source; they are usually repeats but may differ in a detail not shown here. Equal entries are not always repeated.

Tests used:
T-tropic (R8) HIV-1 = settings: for IC50: T-tropic (R8)
[1] = test system: HIV-1 mediated cell-cell fusion (R8 virus); settings: for EC50 / IC50: mediated cell-cell fusion (R8 virus)
M-tropic (BAL) HIV-1 = settings: for IC50: M-tropic (BAL)
R9 HIV-1 virus = assay type: cell-based; settings: 0.01 µM
HIV-1 = assay type: cell-based
[2] = molecular target: gp41 of T20-resistant HIV-1 virus (HIV-1 (T20-resistant virus)); experiment: cell-based or functional assay
[3] = molecular target: gp41 of T-tropic HIV-1 R8 virus (HIV-1 (R8)); experiment: cell-based or functional assay
[4] = molecular target: gp41 of HIV-1 NL4-3 (HIV-1 (NL4-3)); experiment: cell-based or functional assay
[5] = molecular target: gp41 of M-tropic HIV-1 BAL virus (HIV-1 (BAL)); experiment: cell-based or functional assay

Compound	fold increase of potency over monomer, R8 virus (T-tropic (R8) HIV-1)	IC50 (T-tropic (R8) HIV-1)	fold increase over monomer, cell-cell fusion [1]	EC50 [1]	IC50 [1]	fold increase of potency over monomer, BAL virus (M-tropic (BAL) HIV-1)	IC50 (M-tropic (BAL) HIV-1)	percentage of inhibition of cell infection (R9 HIV-1 virus)	Neutralization (%) (HIV-1)	IC50, single-cycle MAGI infection of P4R5 cells, T-20 Resistant Virus [2]	IC50, HIV-1 mediated cell-cell fusion (syncytium formation), R8 virus [3]	IC50, single-cycle MAGI infectivity, R8 virus [3]	IC50, single-cycle MAGI infection of P4R5 cells, NL4-3 (MT-4) [4]	IC50, single-cycle MAGI infectivity, BAL virus [5]
CC[C@H](C)[C@H](NC(=O)[C@H](CC(C)C)NC(=O)[C@H](CO)NC(=O)[C@H](Cc1c[nH]cn1)NC(=O)[C@@H](NC(=O)[C@H](CC(C)C)NC(=O)[C@H](CO)NC(=O)[C@@H](NC(=O)[C@H](Cc1ccc(O)cc1)NC(=O)[C@@H]1CSC(C(=O)NCCCC[C@H](NC(=O)CCNC(=O)C2N[C@H](C(=O)N[C@@H](Cc3ccc(O)cc3)C(=O)N[C@H](C(=O)N[C@@H](CO)C(=O)N[C@@H](CC(C)C)C(=O)N[C@H](C(=O)N[C@@H](Cc3c[nH]cn3)C(=O)N[C@@H](CO)C(=O)N[C@@H](CC(C)C)C(=O)N[C@H](C(=O)N[C@@H](CCC(=O)O)C(=O)N[C@@H](CCC(=O)O)C(=O)N[C@@H](CO)C(=O)N[C@@H](CCC(N)=O)C(=O)N[C@@H](CC(N)=O)C(=O)N[C@@H](CCC(N)=O)C(=O)N[C@@H](CCC(N)=O)C(=O)N[C@@H](CCC(=O)O)C(=O)N[C@@H](CCCCN)C(=O)N[C@@H](CC(N)=O)C(=O)N[C@@H](CCC(=O)O)C(=O)N[C@@H](CCC(N)=O)C(=O)N[C@@H](CCC(=O)O)C(=O)N[C@@H](CC(C)C)C(=O)N[C@@H](CC(C)C)C(=O)N[C@@H](CCC(=O)O)C(=O)N[C@@H](CC(C)C)C(=O)N[C@@H](CC(=O)O)C(=O)N[C@@H](CCCCN)C(=O)N[C@@H](Cc3c[nH]c4ccccc34)C(=O)N[C@@H](C)C(=O)N[C@@H](CO)C(=O)N[C@@H](CC(C)C)C(=O)N[C@@H](Cc3c[nH]c4ccccc34)C(=O)N[C@@H](CC(N)=O)C(=O)N[C@@H](Cc3c[nH]c4ccccc34)C(=O)N[C@@H](Cc3ccccc3)C(=O)O)[C@@H](C)CC)[C@@H](C)CC)[C@@H](C)O)CS2)C(=O)N[C@@H](CO)C(=O)N[C@@H](CO)C(=O)N[C@@H](C)C(N)=O)N1)[C@@H](C)O)[C@@H](C)CC)C(=O)N[C@@H](CCC(=O)O)C(=O)N[C@@H](CCC(=O)O)C(=O)N[C@@H](CO)C(=O)N[C@@H](CCC(N)=O)C(=O)N[C@@H](CC(N)=O)C(=O)N[C@@H](CCC(N)=O)C(=O)N[C@@H](CCC(N)=O)C(=O)N[C@@H](CCC(=O)O)C(=O)N[C@@H](CCCCN)C(=O)N[C@@H](CC(N)=O)C(=O)N[C@@H](CCC(=O)O)C(=O)N[C@@H](CCC(N)=O)C(=O)N[C@@H](CCC(=O)O)C(=O)N[C@@H](CC(C)C)C(=O)N[C@@H](CC(C)C)C(=O)N[C@@H](CCC(=O)O)C(=O)N[C@@H](CC(C)C)C(=O)N[C@@H](CC(=O)O)C(=O)N[C@@H](CCCCN)C(=O)N[C@@H](Cc1c[nH]c2ccccc12)C(=O)N[C@@H](C)C(=O)N[C@@H](CO)C(=O)N[C@@H](CC(C)C)C(=O)N[C@@H](Cc1c[nH]c2ccccc12)C(=O)N[C@@H](CC(N)=O)C(=O)N[C@@H](Cc1c[nH]c2ccccc12)C(=O)N[C@@H](Cc1ccccc1)C(=O)O (stereo partly drawn) [Compound 2α-DP178]	182 fold	0.42 nM	122 fold	0.18 nM	0.18 nM	14 fold	0.28 nM	~100%	<5% and 6%	–	–	–	–	–
CC[C@H](C)[C@H](NC(=O)[C@H](CC(C)C)NC(=O)[C@H](CO)NC(=O)[C@H](Cc1c[nH]cn1)NC(=O)[C@@H](NC(=O)[C@H](CC(C)C)NC(=O)[C@H](CO)NC(=O)[C@@H](NC(=O)[C@H](Cc1ccc(O)cc1)NC(=O)[C@H](CC(N)=O)NC(=O)[C@H](CC(N)=O)NC(=O)[C@@H](NC(=O)[C@H](CCC(=O)O)NC(=O)[C@H](CCCNC(=N)N)NC(=O)[C@H](CC(=O)O)NC(=O)[C@H](Cc1c[nH]c2ccccc12)NC(=O)[C@H](CCC(=O)O)NC(=O)[C@H](CCSC)NC(=O)[C@@H]1Cc2c([nH]c3ccccc23)C(C(=O)NCCCC[C@H](NC(=O)CCNC(=O)C2N[C@H](C(=O)N[C@@H](CCSC)C(=O)N[C@@H](CCC(=O)O)C(=O)N[C@@H](Cc3c[nH]c4ccccc34)C(=O)N[C@@H](CC(=O)O)C(=O)N[C@@H](CCCNC(=N)N)C(=O)N[C@@H](CCC(=O)O)C(=O)N[C@H](C(=O)N[C@@H](CC(N)=O)C(=O)N[C@@H](CC(N)=O)C(=O)N[C@@H](Cc3ccc(O)cc3)C(=O)N[C@H](C(=O)N[C@@H](CO)C(=O)N[C@@H](CC(C)C)C(=O)N[C@H](C(=O)N[C@@H](Cc3c[nH]cn3)C(=O)N[C@@H](CO)C(=O)N[C@@H](CC(C)C)C(=O)N[C@H](C(=O)N[C@@H](CCC(=O)O)C(=O)N[C@@H](CCC(=O)O)C(=O)N[C@@H](CO)C(=O)N[C@@H](CCC(N)=O)C(=O)N[C@@H](CC(N)=O)C(=O)N[C@@H](CCC(N)=O)C(=O)N[C@@H](CCC(N)=O)C(=O)N[C@@H](CCC(=O)O)C(=O)N[C@@H](CCCCN)C(=O)N[C@@H](CC(N)=O)C(=O)N[C@@H](CCC(=O)O)C(=O)N[C@@H](CCC(N)=O)C(=O)N[C@@H](CCC(=O)O)C(=O)N[C@@H](CC(C)C)C(=O)N[C@@H](CC(C)C)C(=O)O)[C@@H](C)CC)[C@@H](C)CC)[C@@H](C)O)[C@@H](C)CC)Cc3c2[nH]c2ccccc32)C(=O)N[C@@H](CO)C(=O)N[C@@H](CO)C(=O)N[C@@H](C)C(N)=O)N1)[C@@H](C)CC)[C@@H](C)O)[C@@H](C)CC)C(=O)N[C@@H](CCC(=O)O)C(=O)N[C@@H](CCC(=O)O)C(=O)N[C@@H](CO)C(=O)N[C@@H](CCC(N)=O)C(=O)N[C@@H](CC(N)=O)C(=O)N[C@@H](CCC(N)=O)C(=O)N[C@@H](CCC(N)=O)C(=O)N[C@@H](CCC(=O)O)C(=O)N[C@@H](CCCCN)C(=O)N[C@@H](CC(N)=O)C(=O)N[C@@H](CCC(=O)O)C(=O)N[C@@H](CCC(N)=O)C(=O)N[C@@H](CCC(=O)O)C(=O)N[C@@H](CC(C)C)C(=O)N[C@@H](CC(C)C)C(=O)O (stereo partly drawn) [Compound 2α-C34]	42 fold	–	74 fold	0.47 nM	0.47 nM	45 fold	0.09 nM	–	<5%	–	–	–	–	–
DP178 (from UniProt P04578 638-673) (peptide)	–	–	–	–	–	–	–	–	–	32.3 nM	22.1 nM	76.4 nM	4.31 nM	3.9 nM
CC[C@H](C)[C@H](NC(=O)[C@H](CC(C)C)NC(=O)[C@H](CO)NC(=O)[C@H](Cc1c[nH]cn1)NC(=O)[C@@H](NC(=O)[C@H](CC(C)C)NC(=O)[C@H](CO)NC(=O)[C@@H](NC(=O)[C@H](Cc1ccc(O)cc1)NC(=O)[C@H](CC(N)=O)NC(=O)[C@H](CC(N)=O)NC(=O)[C@@H](NC(=O)[C@H](CCC(=O)O)NC(=O)[C@H](CCCNC(=N)N)NC(=O)[C@H](CC(=O)O)NC(=O)[C@H](Cc1c[nH]c2ccccc12)NC(=O)[C@H](CCC(=O)O)NC(=O)[C@H](CCSC)NC(=O)[C@@H]1Cc2c([nH]c3ccccc23)C(C(=O)NCCCC[C@H](NC(=O)CCNC(=O)C2N[C@H](C(=O)N[C@@H](CCSC)C(=O)N[C@@H](CCC(=O)O)C(=O)N[C@@H](Cc3c[nH]c4ccccc34)C(=O)N[C@@H](CC(=O)O)C(=O)N[C@@H](CCCNC(=N)N)C(=O)N[C@@H](CCC(=O)O)C(=O)N[C@H](C(=O)N[C@@H](CC(N)=O)C(=O)N[C@@H](CC(N)=O)C(=O)N[C@@H](Cc3ccc(O)cc3)C(=O)N[C@H](C(=O)N[C@@H](CO)C(=O)N[C@@H](CC(C)C)C(=O)N[C@H](C(=O)N[C@@H](Cc3c[nH]cn3)C(=O)N[C@@H](CO)C(=O)N[C@@H](CC(C)C)C(=O)N[C@H](C(=O)N[C@@H](CCC(=O)O)C(=O)N[C@@H](CCC(=O)O)C(=O)N[C@@H](CO)C(=O)N[C@@H](CCC(N)=O)C(=O)N[C@@H](CC(N)=O)C(=O)N[C@@H](CCC(N)=O)C(=O)N[C@@H](CCC(N)=O)C(=O)N[C@@H](CCC(=O)O)C(=O)N[C@@H](CCCCN)C(=O)N[C@@H](CC(N)=O)C(=O)N[C@@H](CCC(=O)O)C(=O)N[C@@H](CCC(N)=O)C(=O)N[C@@H](CCC(=O)O)C(=O)N[C@@H](CC(C)C)C(=O)N[C@@H](CC(C)C)C(=O)O)[C@@H](C)CC)[C@@H](C)CC)[C@@H](C)O)[C@@H](C)CC)Cc3c2[nH]c2ccccc32)C(=O)N[C@@H](CCCCNC(=O)CNC(=O)C2N[C@H](C(=O)N[C@@H](CCSC)C(=O)N[C@@H](CCC(=O)O)C(=O)N[C@@H](Cc3c[nH]c4ccccc34)C(=O)N[C@@H](CC(=O)O)C(=O)N[C@@H](CCCNC(=N)N)C(=O)N[C@@H](CCC(=O)O)C(=O)N[C@H](C(=O)N[C@@H](CC(N)=O)C(=O)N[C@@H](CC(N)=O)C(=O)N[C@@H](Cc3ccc(O)cc3)C(=O)N[C@H](C(=O)N[C@@H](CO)C(=O)N[C@@H](CC(C)C)C(=O)N[C@H](C(=O)N[C@@H](Cc3c[nH]cn3)C(=O)N[C@@H](CO)C(=O)N[C@@H](CC(C)C)C(=O)N[C@H](C(=O)N[C@@H](CCC(=O)O)C(=O)N[C@@H](CCC(=O)O)C(=O)N[C@@H](CO)C(=O)N[C@@H](CCC(N)=O)C(=O)N[C@@H](CC(N)=O)C(=O)N[C@@H](CCC(N)=O)C(=O)N[C@@H](CCC(N)=O)C(=O)N[C@@H](CCC(=O)O)C(=O)N[C@@H](CCCCN)C(=O)N[C@@H](CC(N)=O)C(=O)N[C@@H](CCC(=O)O)C(=O)N[C@@H](CCC(N)=O)C(=O)N[C@@H](CCC(=O)O)C(=O)N[C@@H](CC(C)C)C(=O)N[C@@H](CC(C)C)C(=O)O)[C@@H](C)CC)[C@@H](C)CC)[C@@H](C)O)[C@@H](C)CC)Cc3c2[nH]c2ccccc32)C(=O)N[C@@H](CO)C(=O)N[C@@H](CO)C(=O)N[C@@H](C)C(N)=O)N1)[C@@H](C)CC)[C@@H](C)O)[C@@H](C)CC)C(=O)N[C@@H](CCC(=O)O)C(=O)N[C@@H](CCC(=O)O)C(=O)N[C@@H](CO)C(=O)N[C@@H](CCC(N)=O)C(=O)N[C@@H](CC(N)=O)C(=O)N[C@@H](CCC(N)=O)C(=O)N[C@@H](CCC(N)=O)C(=O)N[C@@H](CCC(=O)O)C(=O)N[C@@H](CCCCN)C(=O)N[C@@H](CC(N)=O)C(=O)N[C@@H](CCC(=O)O)C(=O)N[C@@H](CCC(N)=O)C(=O)N[C@@H](CCC(=O)O)C(=O)N[C@@H](CC(C)C)C(=O)N[C@@H](CC(C)C)C(=O)O (stereo partly drawn) [Compound 3α-C34]	42 fold	1 nM	34 fold	1 nM	1 nM	88 fold	0.06 nM	–	<5%	–	–	–	–	–
